Drawing on article PMC10099810, “Rational Design and Synthesis of D‐galactosyl Lysophospholipids as Selective Substrates and non‐ATP‐competitive Inhibitors of Phosphatidylinositol Phosphate Kinases” (Chemistry (Weinheim an Der Bergstrasse, Germany), 2022), this text covers inhibition, IC50 and Km for 2 molecules.

Data set [1] has as its target T1, 5′ AMP-activated protein kinase α1 (AMPKα1) (Homo sapiens, UniProt Q13131).
T1 construct: gene PRKAA1
Kind of data set: KinaseProfiler activity screen, […] inhibition at […]. The format is biochemical.

Data set [2] concerns the target T2, zPIP5Kα (zebrafish PIP5Kα) (Danio rerio, UniProt Q503I3).
T2 construct: gene pip5k1aa; zebrafish PIP5Kα with a C-terminal His-tag
The data set can be described thus: […]-ATP lipid kinase assay with TLC, diC16-PI4P substrate; ATP and PI4P competition. The format is biochemical.

For data set [3], the target named is T3, hPIKfyve (human PIKfyve) (Homo sapiens, UniProt Q9Y2I7).
T3 construct: full length human PIKfyve with an N-terminal FLAG tag
The data set can be described thus: […]-ATP lipid kinase assay with TLC, diC16-PI3P substrate. The format is biochemical.

Substrate in data set [4]: CCCCCCCCCCCCCCCC(=O)NCCOP(=O)(O)OC[C@H]1OC(O)[C@H](OP(=O)(O)O)[C@@H](O)[C@H]1O
The data set can be described thus: purified protein. Particulars: Mg2+, phosphorylated at the anomeric OH. The format is biochemical, Danio rerio.

T1 sequence (Q13131 whole entry): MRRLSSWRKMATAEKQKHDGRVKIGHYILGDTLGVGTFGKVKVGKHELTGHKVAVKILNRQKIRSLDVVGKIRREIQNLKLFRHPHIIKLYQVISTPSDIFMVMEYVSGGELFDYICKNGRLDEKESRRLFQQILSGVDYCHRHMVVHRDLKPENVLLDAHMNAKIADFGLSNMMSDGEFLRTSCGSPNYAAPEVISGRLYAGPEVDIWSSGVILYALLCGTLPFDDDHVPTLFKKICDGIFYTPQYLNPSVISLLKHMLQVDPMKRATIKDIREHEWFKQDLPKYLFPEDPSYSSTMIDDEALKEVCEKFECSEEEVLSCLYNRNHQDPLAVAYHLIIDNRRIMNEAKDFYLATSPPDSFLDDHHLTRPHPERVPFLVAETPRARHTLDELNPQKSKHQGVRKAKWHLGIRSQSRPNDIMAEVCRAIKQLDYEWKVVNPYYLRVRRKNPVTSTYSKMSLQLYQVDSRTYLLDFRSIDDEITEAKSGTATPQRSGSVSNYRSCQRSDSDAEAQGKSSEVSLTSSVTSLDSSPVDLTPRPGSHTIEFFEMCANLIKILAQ
T1 sequence (Q9Y478 2-270 partner): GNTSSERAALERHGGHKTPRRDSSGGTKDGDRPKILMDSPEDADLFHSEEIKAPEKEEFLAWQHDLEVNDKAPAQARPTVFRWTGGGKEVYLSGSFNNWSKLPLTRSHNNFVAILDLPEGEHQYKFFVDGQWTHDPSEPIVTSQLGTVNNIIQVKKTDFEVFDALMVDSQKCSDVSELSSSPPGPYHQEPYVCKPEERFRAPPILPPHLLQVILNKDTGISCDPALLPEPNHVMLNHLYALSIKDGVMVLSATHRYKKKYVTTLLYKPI
T1 sequence (P54619 whole entry partner): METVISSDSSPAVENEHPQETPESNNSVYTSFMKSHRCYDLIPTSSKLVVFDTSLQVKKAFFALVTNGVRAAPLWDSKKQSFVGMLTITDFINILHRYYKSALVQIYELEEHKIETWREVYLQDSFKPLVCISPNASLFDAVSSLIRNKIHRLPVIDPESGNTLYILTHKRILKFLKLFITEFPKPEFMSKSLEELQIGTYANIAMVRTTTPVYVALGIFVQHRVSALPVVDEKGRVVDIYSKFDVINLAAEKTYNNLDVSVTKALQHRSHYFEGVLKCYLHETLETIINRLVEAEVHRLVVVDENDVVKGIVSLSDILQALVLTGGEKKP
T3 sequence (Q9Y2I7 2-2098): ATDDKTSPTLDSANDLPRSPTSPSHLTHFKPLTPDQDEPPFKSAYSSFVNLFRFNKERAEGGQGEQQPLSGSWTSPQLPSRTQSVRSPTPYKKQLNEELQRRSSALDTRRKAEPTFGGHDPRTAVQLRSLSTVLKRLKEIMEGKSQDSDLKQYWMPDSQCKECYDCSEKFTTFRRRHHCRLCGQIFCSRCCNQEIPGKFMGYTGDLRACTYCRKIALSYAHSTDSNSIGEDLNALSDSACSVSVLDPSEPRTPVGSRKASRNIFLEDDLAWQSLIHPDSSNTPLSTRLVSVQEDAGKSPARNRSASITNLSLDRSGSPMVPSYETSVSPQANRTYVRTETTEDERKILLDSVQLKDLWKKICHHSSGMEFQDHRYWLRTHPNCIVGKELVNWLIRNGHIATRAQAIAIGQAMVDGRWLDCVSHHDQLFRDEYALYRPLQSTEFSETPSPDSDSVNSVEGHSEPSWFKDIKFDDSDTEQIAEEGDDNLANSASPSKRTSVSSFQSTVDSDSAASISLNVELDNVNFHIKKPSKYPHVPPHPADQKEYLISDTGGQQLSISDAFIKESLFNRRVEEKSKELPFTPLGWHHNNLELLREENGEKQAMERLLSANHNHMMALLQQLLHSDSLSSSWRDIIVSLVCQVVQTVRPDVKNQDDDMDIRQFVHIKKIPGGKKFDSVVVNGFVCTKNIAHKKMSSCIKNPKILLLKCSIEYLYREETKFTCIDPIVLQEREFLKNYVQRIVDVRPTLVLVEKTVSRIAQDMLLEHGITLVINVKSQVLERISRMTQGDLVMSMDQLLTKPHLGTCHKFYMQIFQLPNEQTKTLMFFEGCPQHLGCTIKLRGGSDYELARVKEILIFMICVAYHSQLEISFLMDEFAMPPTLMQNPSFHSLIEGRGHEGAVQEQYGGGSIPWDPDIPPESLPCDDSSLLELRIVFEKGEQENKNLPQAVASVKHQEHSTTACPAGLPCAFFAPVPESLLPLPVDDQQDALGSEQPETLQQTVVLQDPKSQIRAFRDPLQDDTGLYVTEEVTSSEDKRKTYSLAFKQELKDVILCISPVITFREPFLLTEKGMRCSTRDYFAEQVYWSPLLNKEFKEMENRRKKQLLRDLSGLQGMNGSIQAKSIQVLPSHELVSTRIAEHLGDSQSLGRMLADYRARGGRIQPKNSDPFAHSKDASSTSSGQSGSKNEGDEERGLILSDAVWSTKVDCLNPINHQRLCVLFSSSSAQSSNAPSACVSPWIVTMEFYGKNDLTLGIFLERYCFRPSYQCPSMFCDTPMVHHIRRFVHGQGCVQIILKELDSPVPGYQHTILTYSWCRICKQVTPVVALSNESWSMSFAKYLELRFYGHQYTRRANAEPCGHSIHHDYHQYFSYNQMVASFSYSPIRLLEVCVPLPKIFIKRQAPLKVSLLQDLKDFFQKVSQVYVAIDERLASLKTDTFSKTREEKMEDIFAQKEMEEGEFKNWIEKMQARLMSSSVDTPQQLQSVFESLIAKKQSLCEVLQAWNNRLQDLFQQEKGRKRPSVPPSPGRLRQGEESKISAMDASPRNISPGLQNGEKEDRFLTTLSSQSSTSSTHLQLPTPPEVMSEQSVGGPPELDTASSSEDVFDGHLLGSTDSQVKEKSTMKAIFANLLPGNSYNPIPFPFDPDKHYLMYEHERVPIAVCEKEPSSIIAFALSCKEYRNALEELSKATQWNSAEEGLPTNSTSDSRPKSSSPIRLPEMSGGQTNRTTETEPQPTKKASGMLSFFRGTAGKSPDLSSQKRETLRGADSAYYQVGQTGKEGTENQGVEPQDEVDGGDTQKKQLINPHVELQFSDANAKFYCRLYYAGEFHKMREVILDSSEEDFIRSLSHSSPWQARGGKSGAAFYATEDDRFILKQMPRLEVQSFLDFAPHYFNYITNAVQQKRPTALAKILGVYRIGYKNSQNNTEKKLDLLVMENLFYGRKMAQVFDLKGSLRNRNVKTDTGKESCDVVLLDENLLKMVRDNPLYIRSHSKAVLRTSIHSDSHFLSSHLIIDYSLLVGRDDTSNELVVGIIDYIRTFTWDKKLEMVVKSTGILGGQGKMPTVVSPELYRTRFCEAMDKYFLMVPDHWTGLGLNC

Consider `CCCCCCCCCCCCCCCC(=O)NCCOP(=O)(O)OC[C@H]1O[C@@H](OC)[C@H](OP(=O)(O)O)[C@H]2OC(C)(C)O[C@H]21` [compound 6], for which at 20 µM the inhibition in data set [1] was 50%. In addition, the IC50 in data set [2] was approximately 15 µM; in data set [3], 6.2 µM.

B1: zPIP5Kα (zebrafish PIP5Kα) (Danio rerio) (protein)
chain: MAAPAVVSTDGADSSTPGNRKMASSEGLSTLGSSQTNKKTLGHRGIDPTGETTYKKTTSSALKGAIQLGITHSVGSLSQKPERDVLMQDFEVVESIFFPSQGSSSTPGHHHGDFKFKTYAPIAFRYFREMFGIRPDDYLYSLCNEPLIELSNPGASGSLFYVSSDDEFIIKTVQHKEAEFLQTLLPGYFMNLNQNMRTLLPKFYGLYCVQADGKNIRIVVMNNLLPRAVPMHLKFDLKGSTYKRRASPKERSKGVPTYKDLDFMQDMPEGILLENDHYTALSRTMQRDCRVLQSFKIMDYSLLVGIHILHRAGEEASTAVPDTQKKGQGQKPLYCTAIESIQGESKSKTSPQPYESMGGIPAFNSKGERLLVFIGIIDILQSYRLVKKLEHSWKALLHDGDTVSVHRPSFYADRFQKFMCSTVFRKSQLKTSPSKRSRLGPVSAGKKSNIAVSGQSHQQSLPVAAELTQSQLWSSEDPQGDSGMQTARPDLLPQQVAEDDITSSSADTTLSATSLVNSRLSTNTPVLSRSSVAGHSSEESLDMDVISLSEIVPQTSTSE
notes: zebrafish PIP5Kα with a C-terminal His-tag
For the molecule B1, in data set [4], the Michaelis-Menten constant (Km) stood at 10 ± 1.3 µM.

For orientation: inhibition means the drop in the measured response relative to a control, in per cent. The low end stands for a response near the control, the high end for a response far below the control. As a reminder, the IC50 is the concentration that inhibits the measured activity by half. As usually defined, the Km is the concentration of substrate that gives half-maximal velocity.
